Experiments:
BerB = molecular target: T1, BerB (Burkholderia cenocepacia, UniProt B4EHY3); assay: SPR, steady-state affinity fit; format: binding; details: labelled compound; biotinylated c-di-GMP immobilised on chip, protein injected; HEPES buffer pH 7.4, 150 mmol/L NaCl, 0.05% Tween
T1 construct: gene BCAM1342; berB in pGEX-6P-2, expressed in E. coli Rosetta (DE3) pLysS as GST fusion, eluted with glutathione
Description: SPR, steady-state affinity fit on BerB | BerB was able to bind to the biotinylated c‐di‐GMP in a concentration‐dependent manner

BerA = molecular target: T2, BerA (Burkholderia cenocepacia, UniProt B4EIC5); assay: SPR, steady-state affinity fit; format: binding; details: labelled compound; biotinylated c-di-GMP immobilised on chip, protein injected; PBS buffer pH 7.4; known binder as positive control
T2 construct: gene BCAM1349; berA in pGEX-6P-2, expressed in E. coli Rosetta (DE3) pLysS as GST fusion, eluted with glutathione
T2 sequence (B4EIC5 entry or part of it): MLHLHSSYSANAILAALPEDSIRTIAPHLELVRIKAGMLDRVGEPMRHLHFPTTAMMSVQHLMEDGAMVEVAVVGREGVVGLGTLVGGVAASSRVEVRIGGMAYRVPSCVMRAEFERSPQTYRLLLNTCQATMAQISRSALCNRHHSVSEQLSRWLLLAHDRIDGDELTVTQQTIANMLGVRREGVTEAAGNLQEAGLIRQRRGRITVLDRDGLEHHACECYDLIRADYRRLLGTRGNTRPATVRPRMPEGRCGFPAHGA

T1 sequence (B4EHY3 entry or part of it): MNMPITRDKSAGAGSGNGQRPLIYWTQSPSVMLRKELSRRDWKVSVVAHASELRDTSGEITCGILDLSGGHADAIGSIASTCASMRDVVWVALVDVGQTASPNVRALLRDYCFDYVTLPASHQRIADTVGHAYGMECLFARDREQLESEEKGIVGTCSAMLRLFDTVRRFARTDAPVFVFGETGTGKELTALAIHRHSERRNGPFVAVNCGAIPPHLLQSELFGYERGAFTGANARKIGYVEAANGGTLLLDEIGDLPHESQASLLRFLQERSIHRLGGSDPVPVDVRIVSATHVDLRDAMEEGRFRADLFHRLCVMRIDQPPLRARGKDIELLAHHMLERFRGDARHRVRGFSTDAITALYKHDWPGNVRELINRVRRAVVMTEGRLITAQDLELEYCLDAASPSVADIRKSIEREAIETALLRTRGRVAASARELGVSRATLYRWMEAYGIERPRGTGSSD

With biotinylated c-di-GMP the Kd (BerB) was about 3 µM and the Kd (BerA) was about 3 µM.

Source: paper PMC5552954, “Regulation of Burkholderia cenocepacia biofilm formation by RpoN and the c‐di‐GMP effector BerB” (MicrobiologyOpen, 2017)
